Experimental data: ChEMBL document CHEMBL4483862, “Open-source discovery of chemical leads for next-generation chemoprotective antimalarials” (2018)
pIC50: −log10 of the molar value.

Tested on: Plasmodium berghei
Experiment: Luciferase/luciferin-expressing antifolate-resistant parasites were used to infect a culture of HepG2 cells that were pre-incubated with compounds. Infected hepatocytes emit light due to the luciferase reaction. Assay results are presented as the percent inhibition of light emission compared to control. […]
Type: functional
Settings: sporozoite; for IC90: read-out: LUCIFERASE INFECTION ASSAY - IC90
[1] = FFLUC_HILL_SLOPE 11.2, FFLUC_R_SQUARED 0.126, read-out: LUCIFERASE INFECTION ASSAY - IC50

SMILES	IC90	further results
CCn1cc(C(=O)N[C@@H](C)C(=O)OC)c(=O)c2cc3c(cc21)OCO3	> 9.53 µM	pIC50 (FFLUC_HILL_SLOPE 11.2, FFLUC_R_SQUARED 0.325, read-out: LUCIFERASE INFECTION ASSAY - IC50): < 5.02
C=CCc1ccccc1OCCn1c(C2CC(=O)N(Cc3ccc(F)cc3)C2)nc2ccccc21 (centres undefined)	> 10 µM	pIC50 (FFLUC_HILL_SLOPE 11.3, FFLUC_R_SQUARED 0.11, read-out: LUCIFERASE INFECTION ASSAY - IC50): < 5.00
CCN(CC)CCn1c(NC(=O)c2cc3c(C)nn(Cc4ccccc4)c3s2)nc2ccccc21	5.29 µM	pIC50 (FFLUC_HILL_SLOPE 11, FFLUC_R_SQUARED 0.377, PBLUC_HILL_SLOPE 1.67, PBLUC_R_SQUARED 0.43, read-out: LUCIFERASE INFECTION ASSAY - IC50): 5.85
COC(=O)c1cc(C(=O)OC)cc(-n2c(C)cc(C(=O)Cn3ncc(Cl)c(Cl)c3=O)c2C)c1	4.48 µM	pIC50 (FFLUC_HILL_SLOPE 11.1, FFLUC_R_SQUARED 0.501, HEPG2TOX_HILL_SLOPE 4.27, HEPG2TOX_R_SQUARED 0.789, PBLUC_HILL_SLOPE 11.5, PBLUC_R_SQUARED 0.682, read-out: LUCIFERASE INFECTION ASSAY - IC50): 5.43
Cc1ccc(S(=O)(=O)c2ccc(C(F)(F)F)cc2[N+](=O)[O-])cc1	> 9.56 µM	pIC50 (FFLUC_HILL_SLOPE 11, FFLUC_R_SQUARED 0.463, read-out: LUCIFERASE INFECTION ASSAY - IC50): < 5.02
O=C(Nc1nc2ccccn2c1C(=O)NC1CCCC1)c1ccc(C(F)(F)F)cc1	0.325 µM	pIC50 (FFLUC_HILL_SLOPE 11.1, FFLUC_R_SQUARED 0.453, HEPG2TOX_HILL_SLOPE 0.561, HEPG2TOX_R_SQUARED 0.841, PBLUC_HILL_SLOPE 12.2, PBLUC_R_SQUARED 0.531, read-out: LUCIFERASE INFECTION ASSAY - IC50): 6.57
Cc1ccccc1NC(=O)c1cc2ccccc2c(CN2CCC3(CC2)OCCO3)c1O	1.28 µM	pIC50 (FFLUC_HILL_SLOPE 10.9, FFLUC_R_SQUARED 0.858, HEPG2TOX_HILL_SLOPE 2.82, HEPG2TOX_R_SQUARED 0.87, PBLUC_HILL_SLOPE 1.78, PBLUC_R_SQUARED 0.84, read-out: LUCIFERASE INFECTION ASSAY - IC50): 6.43
COc1ccc(N(C(C)=O)c2nc(/C=C/C(=O)c3ccc(F)cc3)cs2)cc1	> 10 µM	pIC50 (FFLUC_HILL_SLOPE 11.2, FFLUC_R_SQUARED 0.397, read-out: LUCIFERASE INFECTION ASSAY - IC50): < 5.00
O=[N+]([O-])c1ccsc1Sc1ccc(C(F)(F)F)cn1	> 10.8 µM	pIC50 (FFLUC_HILL_SLOPE 11.2, FFLUC_R_SQUARED 0.0124, HEPG2TOX_HILL_SLOPE 0.715, HEPG2TOX_R_SQUARED 0.731, read-out: LUCIFERASE INFECTION ASSAY - IC50): < 4.97
CN(C(=O)COc1cc2ccccc2cc1C(=O)NCc1ccccc1)C1CCCCC1	> 10 µM	pIC50 (FFLUC_HILL_SLOPE 11, FFLUC_R_SQUARED 0.0654, read-out: LUCIFERASE INFECTION ASSAY - IC50): < 5.00
CCN(CC)S(=O)(=O)c1ccc(Cl)c(NC(=O)CSc2nnc(-c3ccc(F)cc3)c3ccccc23)c1	> 10 µM	pIC50 (FFLUC_HILL_SLOPE 11.3, FFLUC_R_SQUARED 0.167, read-out: LUCIFERASE INFECTION ASSAY - IC50): < 5.00
CCOC(=O)C1CCN(c2cc(C(F)(F)F)nc3c(F)cccc23)CC1	> 8.91 µM	pIC50 (FFLUC_HILL_SLOPE 11, FFLUC_R_SQUARED 0.219, read-out: LUCIFERASE INFECTION ASSAY - IC50): < 5.05
Clc1cc2c(c3ncccc13)OCN(C1CCCC1)C2	2.79 µM	pIC50 (FFLUC_HILL_SLOPE 11.1, FFLUC_R_SQUARED 0.223, HEPG2TOX_HILL_SLOPE 2.6, HEPG2TOX_R_SQUARED 0.787, PBLUC_HILL_SLOPE 4.7, PBLUC_R_SQUARED 0.818, read-out: LUCIFERASE INFECTION ASSAY - IC50): 5.76
O=C(NC(c1ccccc1)c1ccccc1)[C@@H]1C[C@@H](OCc2ccccc2)CN1CC1CCCCC1	> 6.84 µM	pIC50 (FFLUC_HILL_SLOPE 11.2, FFLUC_R_SQUARED 0.284, read-out: LUCIFERASE INFECTION ASSAY - IC50): < 5.16
CCOc1cc(/C=C/C(=O)N(c2ccccc2)c2nc(-c3ccc(F)cc3)cs2)cc(Cl)c1OC	> 10 µM	pIC50 (FFLUC_HILL_SLOPE 10.9, FFLUC_R_SQUARED 0.679, read-out: LUCIFERASE INFECTION ASSAY - IC50): < 5.00
Cc1onc(-c2c(Cl)cccc2Cl)c1NC(=O)Nc1ccc(Oc2ccc(C(C)(C)C)cc2)nc1	> 6.45 µM	pIC50 (FFLUC_HILL_SLOPE 11.2, FFLUC_R_SQUARED 0.206, PBLUC_HILL_SLOPE 0.638, PBLUC_R_SQUARED 0.443, read-out: LUCIFERASE INFECTION ASSAY - IC50): 5.57

SMILES	IC90	further results
N#CC1C(=N)Oc2c3c(c4ccccc4c2C1c1ccc(F)cc1)C(c1ccc(F)cc1)C(C#N)C(=N)O3 (centres undefined)	> 6.54 µM	pIC50 (FFLUC_HILL_SLOPE 11.1, FFLUC_R_SQUARED 0.748, PBLUC_HILL_SLOPE 2.09, PBLUC_R_SQUARED 0.0277, read-out: LUCIFERASE INFECTION ASSAY - IC50): 5.35
CNc1cc(Nc2cc(C)c(Oc3cccc(C(C)(C)C)c3)cc2C)ncn1	8.49 µM	pIC50 (FFLUC_HILL_SLOPE 11.3, FFLUC_R_SQUARED 0.0353, HEPG2TOX_HILL_SLOPE 16.8, HEPG2TOX_R_SQUARED 0.912, PBLUC_HILL_SLOPE 9.72, PBLUC_R_SQUARED 0.605, read-out: LUCIFERASE INFECTION ASSAY - IC50): 5.17
CC1CCc2nc(/C(C#N)=C/c3ccccc3OC(F)F)sc2C1 (centres undefined)	3.92 µM	pIC50 (FFLUC_HILL_SLOPE 11.1, FFLUC_R_SQUARED 0.825, PBLUC_HILL_SLOPE 3.87, PBLUC_R_SQUARED 0.911, read-out: LUCIFERASE INFECTION ASSAY - IC50): 5.65
CC(NC(=O)COC(=O)CSc1ccc(Br)c2cccc(Cl)c12)c1ccccc1 (centres undefined)	> 10 µM	pIC50 (FFLUC_HILL_SLOPE 11.2, FFLUC_R_SQUARED 0.0748, PBLUC_HILL_SLOPE 1.42, PBLUC_R_SQUARED 0.0165, read-out: LUCIFERASE INFECTION ASSAY - IC50): < 5.00
CCCNC(=O)c1c(NC(=O)c2ccc(C(F)(F)F)cc2)nc2ccc(C)cn12	1.11 µM	pIC50 (FFLUC_HILL_SLOPE 11.2, FFLUC_R_SQUARED 0.698, HEPG2TOX_HILL_SLOPE 0.884, HEPG2TOX_R_SQUARED 0.902, PBLUC_HILL_SLOPE 2.26, PBLUC_R_SQUARED 0.742, read-out: LUCIFERASE INFECTION ASSAY - IC50): 6.38
COC(=O)c1cc(N/N=C2\C=CC(=O)c3ncccc32)cc(C(=O)OC)c1	3.38 µM	pIC50 (FFLUC_HILL_SLOPE 11, FFLUC_R_SQUARED 0.42, HEPG2TOX_HILL_SLOPE 0.866, HEPG2TOX_R_SQUARED 0.908, PBLUC_HILL_SLOPE 2.75, PBLUC_R_SQUARED 0.794, read-out: LUCIFERASE INFECTION ASSAY - IC50): 5.82
O=C(c1cnc(N2CCCC2)s1)c1sc2cc(Cl)cc(Cl)c2c1Cl	> 10 µM	pIC50 (FFLUC_HILL_SLOPE 11, FFLUC_R_SQUARED 0.0847, HEPG2TOX_HILL_SLOPE 2.22, HEPG2TOX_R_SQUARED 0.924, PBLUC_HILL_SLOPE 1.87, PBLUC_R_SQUARED 0.226, read-out: LUCIFERASE INFECTION ASSAY - IC50): 5.16
O=C(/C=C/c1cccnc1)c1ccc(S(=O)(=O)NCc2ccccc2Cl)cc1	5.93 µM	pIC50 (FFLUC_HILL_SLOPE 11, FFLUC_R_SQUARED 0.373, HEPG2TOX_HILL_SLOPE 8.76, HEPG2TOX_R_SQUARED 0.66, PBLUC_HILL_SLOPE 5.1, PBLUC_R_SQUARED 0.695, read-out: LUCIFERASE INFECTION ASSAY - IC50): 5.41
CC(C)(C)c1ccc(C(=O)NCCOc2ccccc2Cl)cc1	0.863 µM	pIC50 (FFLUC_HILL_SLOPE 11.3, FFLUC_R_SQUARED 0.0884, PBLUC_HILL_SLOPE 2.08, PBLUC_R_SQUARED 0.74, read-out: LUCIFERASE INFECTION ASSAY - IC50): 6.52
CCCc1ccc(-c2nc(NC(=O)C3CCCN(c4ncccn4)C3)sc2C)cc1 (centres undefined)	> 10 µM	pIC50 (FFLUC_HILL_SLOPE 11.3, FFLUC_R_SQUARED 0.0894, PBLUC_HILL_SLOPE 12.7, PBLUC_R_SQUARED 0.313, read-out: LUCIFERASE INFECTION ASSAY - IC50): 5.02
Cc1ccc2cc(COC(=O)/C(=C/c3ccccc3)n3nnnc3C)c(Cl)nc2c1	> 10 µM	pIC50 [1]: < 5.00
C=S(=O)(NC(=O)CSc1nc2ccccc2s1)c1ccc(Cl)cc1 (centres undefined)	> 8.31 µM	pIC50 [1]: < 5.08
O=C(CN(Cc1c(F)cccc1Cl)C1CC1)Nc1ccccc1Cl	> 10 µM	pIC50 (FFLUC_HILL_SLOPE 11.2, FFLUC_R_SQUARED 0.995, read-out: LUCIFERASE INFECTION ASSAY - IC50): < 5.00
Cc1nn(C)c2nc(-c3ccco3)cc(C(=O)Nc3ccnn3Cc3ccc(Cl)cc3Cl)c12	> 10 µM	pIC50 (FFLUC_HILL_SLOPE 11.1, FFLUC_R_SQUARED 0.205, read-out: LUCIFERASE INFECTION ASSAY - IC50): < 5.00
CN(C)S(=O)(=O)c1cccc(NC(=S)N/N=C/c2cc3c(cc2[N+](=O)[O-])OCO3)c1	> 10 µM	pIC50 (FFLUC_HILL_SLOPE 11, FFLUC_R_SQUARED 0.0812, read-out: LUCIFERASE INFECTION ASSAY - IC50): < 5.00
O=C(CCn1cnc([N+](=O)[O-])c1)Nc1nc(-c2ccccc2)c(-c2ccccc2)s1	7.85 µM	pIC50 (FFLUC_HILL_SLOPE 11.3, FFLUC_R_SQUARED 0.217, PBLUC_HILL_SLOPE 4.55, PBLUC_R_SQUARED 0.65, read-out: LUCIFERASE INFECTION ASSAY - IC50): 5.32
